Measured values from publication PMC4413193, “3-[4-(1H-Indol-3-yl)-1,3-thiazol-2-yl]-1H-pyrrolo[2,3-b]pyridines, Nortopsentin Analogues with Antiproliferative Activity” (Marine Drugs, 2015).

Key:
CCRF-CEM = assay: NCI-60 in vitro tumor cell growth inhibition, CCRF-CEM (leukemia); type: cell-based; conditions: Homo sapiens, five concentration levels 10^−4–10^−8 M
Procedure: (§1) All the synthesized thiazoles 3a–k were evaluated by the National Cancer Institute (Bethesda MD) for cytotoxicity against the NCI-60 cell line panel using standard protocols. Initially, the selected derivatives 3c,d,g,h,j,k were tested at a single dose (10^−5 M) on the full panel of approximately 60 human tumor cell lines derived from 9 human cancer cell types, that have been grouped in disease sub-panels including leukemia, non-small-cell lung, colon, central nervous system (CNS), melanoma, ovarian, renal, prostate and breast cancers (data not shown). Compounds 3d and 3k were further selected for full evaluation at five concentration levels (10^−4–10^−8 M).
(§2) The antitumor activity of compounds 3d and 3k was given by three parameters for each cell line: GI50 (the molar concentration of the compound that inhibits 50% net cell growth), TGI (the molar concentration of the compound leading to total inhibition of net cell growth), and LC50 (the molar concentration of the compound that induces 50% net cell death). The average values of mean graph midpoint (MG_MID) were calculated for each of these parameters.

K-562 = assay: NCI-60 in vitro tumor cell growth inhibition, K-562 (leukemia); type: cell-based; conditions: Homo sapiens, K562, five concentration levels 10^−4–10^−8 M
Procedure: as §1, §2

HOP-92 = assay: NCI-60 in vitro tumor cell growth inhibition, HOP-92 (non-small cell lung cancer); type: cell-based; conditions: Homo sapiens, five concentration levels
Procedure: as §1, §2

HCT-116 = assay: NCI-60 in vitro tumor cell growth inhibition, HCT-116 (colon cancer); type: cell-based; conditions: Homo sapiens, five concentration levels
Procedure: as §1, §2

SW-620 = assay: NCI-60 in vitro tumor cell growth inhibition, SW-620 (colon cancer); type: cell-based; conditions: Homo sapiens, five concentration levels
Procedure: as §1, §2

SK-MEL-2 = assay: NCI-60 in vitro tumor cell growth inhibition, SK-MEL-2 (melanoma); type: cell-based; conditions: Homo sapiens, five concentration levels
Procedure: as §1, §2

SK-MEL-5 = assay: NCI-60 in vitro tumor cell growth inhibition, SK-MEL-5 (melanoma); type: cell-based; conditions: Homo sapiens, five concentration levels
Procedure: as §1, §2

OVCAR-8 = assay: NCI-60 in vitro tumor cell growth inhibition, OVCAR-8 (ovarian cancer); type: cell-based; conditions: Homo sapiens, five concentration levels
Procedure: as §1, §2

A498 = assay: NCI-60 in vitro tumor cell growth inhibition, A498 (renal cancer); type: cell-based; conditions: Homo sapiens, five concentration levels
Procedure: as §1, §2

CAKI-1 = assay: NCI-60 in vitro tumor cell growth inhibition, CAKI-1 (renal cancer); type: cell-based; conditions: Homo sapiens, five concentration levels
Procedure: as §1, §2

TK-10 = assay: NCI-60 in vitro tumor cell growth inhibition, TK-10 (renal cancer); type: cell-based; conditions: Homo sapiens, five concentration levels
Procedure: as §1, §2

UO-31 = assay: NCI-60 in vitro tumor cell growth inhibition, UO-31 (renal cancer); type: cell-based; conditions: Homo sapiens, five concentration levels
Procedure: as §1, §2

PC-3 = assay: NCI-60 in vitro tumor cell growth inhibition, PC-3 (prostate cancer); type: cell-based; conditions: Homo sapiens, five concentration levels
Procedure: as §1, §2

DU-145 = assay: NCI-60 in vitro tumor cell growth inhibition, DU-145 (prostate cancer); type: cell-based; conditions: Homo sapiens, five concentration levels
Procedure: as §1, §2

[1] = system: human HepG2 hepatocarcinoma cells; assay: MTT cell growth assay, HepG2; type: cell-based; conditions: 72 h, 0.1–10 μM
Procedure: Cell growth inhibitory activity of compounds 3d and 3k was also investigated on human HepG2 hepatocarcinoma cells, a cell line not included in the NCI panel and of interest in the drug discovery because provided with a very active microsomal system for detoxification of xenobiotics. Monolayer cultures treated for 72 h with 0.1–10 μM concentrations of the compounds were examined by 3-(4,5-dimethylthiazol-2-yl)-2,5-diphenyltetrazolium bromide (MTT) assay for cell growth.
Human cell lines of hepatoma HepG2 and Chang liver were purchased from American Type Culture Collection, Rockville, MD, USA. Cells were grown in RPMI supplemented with 2 mM L-glutamine, 10% FBS, 100 U/mL penicillin, 100 μg/mL streptomycin and 5 μg/mL gentamicin. HepG2 culture medium also contained 1.0 mM sodium pyruvate. Cells were maintained in log phase by seeding twice a week at a density of 3 × 10^8 cells/L in humidified 5% CO2 atmosphere, at 37 °C. […] Cytotoxic activity of the compounds was determined by the MTT quantitative colorimetric assay based on the reduction of the 3-(4,5-dimethyl-2-thiazolyl)-2,5-diphenyl-2H-tetrazolium bromide (MTT) into purple formazan by mitochondrial dehydrogenases of living cells. […] The absorbance at 540 nm was measured in a microplate reader (Bio-RAD, Hercules, CA, USA). […]

HepG2 cells [2] = assay: Cell cycle analysis by flow cytometry (PI staining); type: cell-based, human; conditions: HepG2, 24 h treatment
Procedure: The distribution of HepG2 cells in the cell cycle phases after 24 h treatment with the two norptopsentin analogues, was assessed by flow cytometric analysis after staining of DNA with PI.
Cell cycle stage was analyzed by flow cytometry. Aliquots of 1 × 10^6 cells were harvested by centrifugation, washed with PBS and incubated in the dark in a PBS solution containing 20 μg/mL propidium iodide (PI) and 200 μg/mL RNase, for 30 min, at room temperature. Then samples were subjected to fluorescence-activated cell sorting (FACS) analysis by Epics XL™ flow cytometer using Expo32 software (Beckman Coulter, Fullerton, CA, USA). At least 1 × 10^4 cells were analyzed for each sample.

HepG2 cells [3] = assay: Acridine orange/ethidium bromide morphological staining; type: cell-based, human; conditions: HepG2, 24 h, at GI50 concentration
Text: To confirm apoptotic mechanism of cytotoxicity of the nortopsentin analogues, we carried out morphological evaluation of HepG2 cells using AO and EB double staining. […] Moreover, fluorescing orange cells owing to increase of cell permeability to ethidium bromide, cell shrinkage and nuclear fragmentation were also evident as cells in late apoptosis (Figure 3B). Taken together, these findings provided strong evidence that the synthesized nortopsentin analogues induced apoptosis in HepG2 cells.
Acridine orange (AO) stains DNA bright green, allowing visualization of the nuclear chromatin pattern and stains both live and dead cells. Ethidium bromide (EB) stains DNA orange but is excluded by viable cells. Dual staining allows separate enumeration of populations of viable non-apoptotic, viable (early) apoptotic, nonviable (late) apoptotic, and necrotic cells. Live cells appear uniformly green. […] Late apoptotic cells incorporate EB and therefore stain orange, but, in contrast to necrotic cells, the late apoptotic cells show condensed and often fragmented nuclei. Necrotic cells stain orange, but have a nuclear morphology resembling that of viable cells, with no condensed chromatin. Briefly, after HepG2 cells were treated with 3d or 3k compounds for 24 h, the medium was discarded. […]

Row | SMILES | GI50 (CCRF-CEM) | GI50 (K-562) | GI50 (HOP-92) | GI50 (HCT-116) | GI50 (SW-620) | GI50 (SK-MEL-2) | GI50 (SK-MEL-5) | GI50 (OVCAR-8) | GI50 (A498) | GI50 (CAKI-1) | GI50 (TK-10) | GI50 (UO-31) | GI50 (PC-3) | GI50 (DU-145) | GI50 [1] | distribution of HepG2 cells in the cell cycle phases (HepG2 cells [2]) | morphological evaluation, AO and EB double staining (HepG2 cells [3])
1 | Cn1cc(-c2csc(-c3cn(C)c4ncccc34)n2)c2ccccc21 [Compound 3d, 1-Methyl-3-[4-(1-methyl-1H-indol-3-yl)-1,3-thiazol-2-yl]-1H-pyrrolo[2,3-b]pyridine] | 400 nM | 70 nM | 350 nM | 370 nM | 220 nM | 580 nM | 240 nM | 660 nM | 500 nM | 380 nM | 600 nM | 900 nM | 460 nM | 390 nM | 1690 nM | significant dose-dependent decrease in the percentage of cells in the G0/G1 and S phases, accompanied by a concomitant percentage increase of cells in the G2/M phase, and appearance of a subG1-cell population | chromatin condensation and nuclear fragmentation
2 | Cn1cc(-c2nc(-c3c[nH]c4ccccc34)cs2)c2cccnc21 [Compound 3k, 3-[4-(1H-Indol-3-yl)-1,3-thiazol-2-yl]-1-methyl-1H-pyrrolo[2,3-b]pyridine] | 430 nM | 120 nM | 310 nM | 390 nM | 300 nM | 410 nM | 270 nM | 820 nM | 370 nM | 440 nM | 990 nM | 690 nM | 560 nM | 560 nM | 210 nM | significant dose-dependent decrease in the percentage of cells in the G0/G1 and S phases, accompanied by a concomitant percentage increase of cells in the G2/M phase, and appearance of a subG1-cell population | chromatin condensation and nuclear fragmentation
